Assay results as given in patent US10590079B2, “Cyano-substituted indoles as LSD1 inhibitors” (Novartis AG, priority 2016, dated 2020).
pIC50: −log10 of the molar value. Read-outs that look alike come from different tables or passages of the source.

Key:
[1] = molecular target: T1, full-length LSD1 (Homo sapiens, UniProt O60341); test: FL-LSD1 LC-MS assay; format: biochemical; conditions: 0.4 nM FL-LSD1, 0.25 μM FAD, 0.5 μM H3K4me1 peptide, 60 min; read-out: (a) IC50 LC-MS Qualified assay
T1 construct: the full-length LSD1 and 0.5 μM FAD in reaction buffer
Experimental: Representative compounds of the present invention were serially and separately diluted 3-fold in DMSO to obtain a total of twelve concentrations. […] A 5 μL solution of 1 μM of the peptide substrate H3K4me1 (histone H3[1-21]-biotin) in reaction buffer was added to each initiate reaction. […] The conversion ratio of H3K4me1 substrate to the H3K4me0 product was calculated by dividing the peak area of the H3K4me0 peptide by the total peak area of all those two peptides on the assumption that the ionization efficiency of those peptides is the same. The data were then fit to a dose response equation using the program Helios to get the IC50 values of the test compound.

[2] = test system: Molm13 cell; test: Anti-proliferation assay in Molm13 cell; format: cell-based, human; conditions: 6 days, cell titer glow, read-out: (b) IC50 anti proliferative assay in molm13 cell
Experimental: Anti-Proliferation Assay in Molm13 Cell
After cell seeding, a compound of the present invention was added to the cell media (in concentrations ranging from 0 to 100 μM, 3× dilution series). After 6 days, 100 ul/well cell titer glow (Promega, cat#G7573) was added into the cell culture, and luminerence was read on Envision (Pelkin Elmer) to determine the viable cells. The percentage inhibition was calculated against the samples treated with DMSO.

[3] = test system: CD11b; test: CD11b FACS assay; format: cell-based; conditions: Homo sapiens, THP-1; Thp1 cell, 96 hrs; read-out: (c) IC50 CD11b FACS assay
Experimental: Representative compounds of the present invention were serially and separately diluted 5-fold in DMSO to obtain a total of 6 concentrations. Then the compounds were added to Thp1 cell cultured in 96-well round bottom plate (Costar, Cat#3099) at 1:1000 dilution to obtain the highest concentration of 10 μM. The cells were further cultured for 96 hrs before FACS procedure.
FACS protocol: FACS was performed using standard flowcytometry. Cell was collected and washed with FACS buffer twice (2% heat inactivated FBS in PBS) in 96-well plate, and stained with antibody against CD11b, or isotype control, then washed with FACS buffer for 3 times before reading on Guava 8HT (Merck Millipore) Results were analyzed using Flowjo, and mean fluoreance was calculated and normalized to the cells treated with DMSO. The fold value were then analyzed via Graphpad Prism and fit to a dose response curve to get IC50 value of the test compound. Antibodies for FACS: PE mouse IgG1 k chain (BD Bioscience, #555749), PE mouse anti human CD11b (BD Bioscience, #555388)

## Cc1c(N)cccc1-c1cn(C2CCC(O)C2)c2ccc(C#N)cc12 (racemic) [Example 80, Trans-3-(3-amino-2-methylphenyl)-1-(3-hydroxycyclopentyl)-1H-indole-5-carbonitrile]
[1]
  pIC50: 7.62
[2]; Homo sapiens, MOLM-13, 144 h
  pIC50: 6.41

## Cc1cc2c(cc1C#N)c(-c1cncc(N)c1C)cn2C1CCC(O)C1 (single isomer, unassigned) [Example 87, Cis-3-(5-amino-4-methylpyridin-3-yl)-1-(3-hydroxycyclopentyl)-6-methyl-1H-indole-5-carbonitrile]
[1]
  pIC50: 7.82
[2]; Homo sapiens, MOLM-13, 144 h
  pIC50: 7.12

## Cc1cc2c(cc1C#N)c(-c1cncc(N)c1C)cn2C1CCC(O)C1 (single isomer, unassigned) [Example 88, Trans-3-(5-amino-4-methylpyridin-3-yl)-1-(3-hydroxycyclopentyl)-6-methyl-1H-indole-5-carbonitrile]
[1]
  pIC50: 7.82
[2]
  pIC50: 7.05

## COc1ccc(-n2cc(-c3cccc(N)c3C)c3cc(C#N)c(C)cc32)cc1 [Example 65, 3-(3-amino-2-methylphenyl)-1-(4-methoxyphenyl)-6-methyl-1H-indole-5-carbonitrile]
[1]
  pIC50: 8.52
[3]
  pIC50: 6.50
[2]; Homo sapiens, MOLM-13, 144 h
  pIC50: 6.91

## COc1ccc(-n2cc(-c3cncc(N)c3C)c3cc(C#N)c(C)cc32)cc1 [Example 71, 3-(5-amino-4-methylpyridin-3-yl)-1-(4-methoxyphenyl)-6-methyl-1H-indole-5-carbonitrile]
[1]
  pIC50: 8.52
[3]
  pIC50: 6.10
[2]; Homo sapiens, MOLM-13, 144 h
  pIC50: 7.29

## CN[C@H]1CC[C@H](n2cc(-c3cccc(N)c3C)c3cc(C#N)c(C)cc32)CC1 [Example 78, Trans-3-(3-amino-2-methylphenyl)-6-methyl-1-(4-(methylamino)cyclohexyl)-1H-indole-5-carbonitrile]
[2]; Homo sapiens, MOLM-13, 144 h
  pIC50: 7.54

## Cc1c(N)cccc1-c1cn(C2CCCC(O)C2)c2ccc(C#N)cc12 (stereo not drawn) [Example 83, Trans-3-(3-amino-2-methylphenyl)-1-(3-hydroxycyclohexyl)-1H-indole-5-carbonitrile]
[1]
  pIC50: 7.22
[2]; Homo sapiens, MOLM-13, 144 h
  pIC50: 6.57

## Cc1cc2c(cc1C#N)c(-c1cccc(N)c1C)cn2[C@H]1CC[C@H](O)CC1 [Example 93, Trans-3-(3-amino-2-methylphenyl)-1-(4-hydroxycyclohexyl)-6-methyl-1H-indole-5-carbonitrile]
[3]
  pIC50: 7.14

## Cc1cc2c(cc1C#N)c(-c1cncc(N)c1C)cn2[C@H]1CC[C@H](O)CC1 [Example 94, Trans-3-(5-amino-4-methylpyridin-3-yl)-1-(4-hydroxycyclohexyl)-6-methyl-1H-indole-5-carbonitrile]
[1]
  pIC50: 7.80
[2]; Homo sapiens, MOLM-13, 144 h
  pIC50: 7.14

## Cc1cc2c(cc1C#N)c(-c1cccc(N)c1C)cn2[C@H]1CC[C@@H](O)CC1 [Example 95, Cis-3-(3-amino-2-methylphenyl)-1-(4-hydroxycyclohexyl)-6-methyl-1H-indole-5-carbonitrile]
[2]; Homo sapiens, MOLM-13, 144 h
  pIC50: 7.31

## Cc1cc2c(cc1C#N)c(-c1cccc(N)c1C)cn2C1CCNCC1 [Example 97, 3-(3-amino-2-methylphenyl)-6-methyl-1-(piperidin-4-yl)-1H-indole-5-carbonitrile]
[1]
  pIC50: 7.85
[2]; Homo sapiens, MOLM-13, 144 h
  pIC50: 6.03

## Cc1cc2c(cc1C#N)c(-c1cccc(N)c1C)cn2[C@H]1C[C@H](O)C1 [Example 100, Trans-3-(3-amino-2-methylphenyl)-1-(3-hydroxycyclobutyl)-6-methyl-1H-indole-5-carbonitrile]
[2]; Homo sapiens, MOLM-13, 144 h
  pIC50: 7.32
